Reference: patent publication US10159668B2, “Pharmaceutical composition for inhibiting alpha-glucosidase” (Tamkang University, priority 2017, dated 2018)

What follows are compounds tested against rat α-glucosidase (Rat aG) (assay: Test of IC50: inhibitive activity on rat α-glucosidase). Conditions: Embodiment 2, Table 2, single components.
Format: biochemical
Description: (§1) Testing and comparing the inhibitive activity Max % and IC50 of the composition and a known diabetes drug A (α-glucosidase inhibitor) to rat α-glucosidase (abbreviated as Rat aG) and yeast α-glucosidase (abbreviated as Yeast aG), individually. IC50 means the concentration of the inhibitor to achieve 50% inhibition rate.
(§2) The present embodiment tests IC50 of adenine, 3-hydroxy-dl-proline, nicotinic acid, (3,6-dioxo-piperazin-2-yl)-acetic acid amide, 2-ethylhexyl heptanoate, and the diabetes drug A to Rat aG and Yeast aG, individually.

| Structure (SMILES) | Rat aGI (IC50 to Rat aG) [µg/mL] |
| --- | --- |
| CCCCCCC(=O)OCC(CC)CCCC (stereo not shown) [2-ethylhexyl heptanoate] | 105 |
| NC(=O)CC1NC(=O)CNC1=O (stereo not shown) [(3,6-dioxo-piperazin-2-yl)-acetic acid amide] | 105 |
| O=C(O)c1cccnc1 [Nicotinic acid] | 67 |

Each compound was assayed against yeast α-glucosidase (Yeast aG) (assay: not given). Conditions: Embodiment 2, Table 2, single components.
Format: biochemical
Description: as §1, §2

| Structure (SMILES) | Yeast aGI (IC50 to Yeast aG) [µg/mL] |
| --- | --- |
| Nc1ncnc2nc[nH]c12 [Adenine] | 21.5 |
| CCCCCCC(=O)OCC(CC)CCCC (stereo not shown) [2-ethylhexyl heptanoate] | 4.0 |
| NC(=O)CC1NC(=O)CNC1=O (stereo not shown) [(3,6-dioxo-piperazin-2-yl)-acetic acid amide] | 4.0 |
| O=C(O)c1cccnc1 [Nicotinic acid] | 517 |
